This passage reports AC50 results from PubChem BioAssay AID1035470 (Broad Institute, 2014).

For this assay, the system named is E. coli WT-GFP vs G2058-humanized RFP, fluorescence, 24 h. Nature of the assay: growth inhibition of wild-type GFP E. coli versus G2058-humanized strain, dose response, G2058 mutant RFP vs wild-type GFP, cherry-pick, two tests (AID 1035470).
[1] abbreviates: E. coli WT-GFP vs G2058-humanized RFP mixed culture, total growth OD600, 24 h.
Setting [2] is: measured here: G2058 humanized mutant RFP growth.

Inconclusive results are not listed. Calls of active or inactive are those of the source.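 Rule for the calls: active = compound lowering the normal-ribosome reporter at least twice as much as the humanized-ribosome reporter, growth loss under a set limit; inconclusive = no clear call, values can overlap the other calls; inactive = the rest.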

By AC50 is commonly meant the concentration giving half of the maximal activity seen. Turning to `O=C(O)CC1(CC(=O)Nc2ccc3sccc3c2)CCCCC1`, the AC50 is > 100 µM (inactive). For the compound `CC1CCCC(NC(=O)COC(=O)Cc2c[nH]c3ccccc23)C1C` (stereo not drawn), the AC50 is > 100 µM (inactive). Further, under setting [1], the concentration at half-maximal activity (AC50) is over 100 µM. Take `Cc1ccc(CC2C(=O)N(c3cc(Cl)ccn3)C(=O)C2C)cc1` (stereo not drawn): the AC50 was > 100 µM (inactive). For the compound `COc1ccc(NC(=O)CSc2nnc(Cc3ccccc3)o2)c(OC)c1`, the AC50 is > 100 µM (inactive). Moreover, the AC50 under setting [1] is over 100 µM. Under setting [2], `CCn1c(COc2cccc(OC)c2)nnc1SCC(=O)Nc1cc(OC)ccc1OC` came in with an AC50 of 19.4 µM. As for `CC(C)NC(=O)N(C)C[C@H]1OCCCC[C@@H](C)Oc2ccc(NC(=O)c3ccccc3)cc2C(=O)N([C@@H](C)CO)C[C@H]1C`, the AC50 was > 100 µM (inactive). Same read-out and setting: under `CCn1c(-c2ccccc2Cl)nn(CC(=O)Nc2ccccc2OC)c1=S` stands > 100 µM (inactive). As to `Cc1nc(SCC(=O)Nc2ccc3c(c2)OCCO3)nc(C)c1C`, the AC50 was > 100 µM (inactive). The compound further yielded a half-maximal activity concentration (AC50) under setting [1] of 46.5 µM. The corresponding values for `Cc1ccc(NC(=O)c2ccc([N+](=O)[O-])s2)cc1S(=O)(=O)N1CCOCC1` are > 100 µM (inactive) and over 100 µM. `Fc1cccc(CCN2C(=S)NC[C@@H]2CC2CCCCC2)c1`: the AC50 was > 100 µM (inactive). Regarding `O=C(CN1CCN(S(=O)(=O)c2ccc(Cl)cc2)CC1)Nc1ccc2c(c1)CCC2`, the AC50 was > 100 µM (inactive).

With `CCOC(=O)c1c(CS(=O)(=O)c2ccccc2)n(C)c2cc(Br)c(O)cc12`, the AC50 is > 100 µM (inactive). Regarding `O=[N+]([O-])c1ccccc1Oc1ccc(Cl)c2cccnc12`, the AC50 was > 100 µM (inactive). In the case of `O=C(Nc1cscc1S(=O)(=O)c1ccccc1)c1ccccc1Cl`, the AC50 is > 100 µM (inactive). For the compound `COCC(C)NC(=O)c1nn(Cc2ccccc2)c(=O)c2ccccc12` (stereo not drawn), the half-maximal activity concentration (AC50) under setting [1] was over 100 µM. In the case of `CCOC(=O)Cc1nnc(NC(=O)CSc2nc3ccccc3[nH]2)s1`, the AC50 was > 100 µM (inactive).

As for `Nc1ccc(C(=O)OCCc2ccccc2)cc1`, the AC50 was > 100 µM (inactive). The concentration at half-maximal activity (AC50) under setting [2] was found to be 45.9 µM. `Cc1cccc(-c2ccc([C@@H]3[C@@H](CO)N4CCCCN(S(=O)(=O)c5ccccc5C)C[C@@H]34)cc2)c1` returned a concentration at half-maximal activity (AC50) under setting [1] of over 100 µM. For the compound `O=C(O)c1ccccc1NC(=O)C(c1ccccc1)c1ccccc1`, the AC50 was > 100 µM (inactive).

On to `Cn1cc(CN2CCCC(C(=O)Nc3cccc(-c4cc5ccccc5[nH]4)c3)C2)cn1` (stereo not drawn), for which the AC50 is > 100 µM (inactive). As to `O=C(Nc1ccc(Cl)cc1)N1C[C@H]2[C@@H](c3ccccc31)[C@@H](CO)N2C(=O)c1ccccn1`, the AC50 is > 100 µM (inactive). Regarding `Cc1onc(-c2ccccc2Cl)c1C(=O)OCC(=O)c1ccccc1`, the AC50 is > 100 µM (inactive). Take `COc1ccc(C(=O)N(c2ccccc2)c2nccc3ccccc23)cc1OC`: the AC50 was > 100 µM (inactive). Consider `Cc1cc2c(sc3ccccc32)c(C)n1`, for which the AC50 is > 100 µM (inactive). For the same compound, the AC50 under setting [1] is over 100 µM. The compound further yielded an AC50 under setting [2] of 48.8 µM. For `O=C(NCCO)c1cc2c([nH]c3ccccc32)c(-c2ccccc2)n1` the same measures were > 100 µM (inactive), over 100 µM and over 100 µM. In the case of `O=C(CSc1ccc(-c2cccnc2)nn1)N1CCCc2ccccc21`, the AC50 was > 100 µM (inactive). With `CCOC(=O)c1c(NC(=O)CN2CCC(C)CC2)sc(C)c1C`, the AC50 is > 100 µM (inactive). On to `NC(=O)c1cc(NC(=O)c2cc(Br)c(Br)s2)cc(C(N)=O)c1`, for which the AC50 is > 100 µM (inactive). Consider `N#Cc1ccc(-c2ccc(C3[C@H]4CNC[C@@H]3N4S(=O)(=O)c3ccc(-c4ccccc4)cc3)cc2)cc1` (stereo partly drawn), for which the concentration at half-maximal activity (AC50) under setting [1] was over 100 µM.
